Measured values as given in patent US20220226282A1 (priority 2021, published 2022).
Values joined by “and” are separate entries in the source; they are usually repeats but may differ in a detail not shown here. Equal entries are not always repeated. Where two headings read alike, the source gives them in different places.

Experiments:
BoNT/A LC [1] = molecular target: T1, BoNT/A LC (Clostridium botulinum, UniProt P0DPI0); experiment: biochemical; set-up: species or system C. botulinum; details: read-out: % inhibition of the LCA endopeptidase activity
T1 sequence (P0DPI0 2-448 limits assumed): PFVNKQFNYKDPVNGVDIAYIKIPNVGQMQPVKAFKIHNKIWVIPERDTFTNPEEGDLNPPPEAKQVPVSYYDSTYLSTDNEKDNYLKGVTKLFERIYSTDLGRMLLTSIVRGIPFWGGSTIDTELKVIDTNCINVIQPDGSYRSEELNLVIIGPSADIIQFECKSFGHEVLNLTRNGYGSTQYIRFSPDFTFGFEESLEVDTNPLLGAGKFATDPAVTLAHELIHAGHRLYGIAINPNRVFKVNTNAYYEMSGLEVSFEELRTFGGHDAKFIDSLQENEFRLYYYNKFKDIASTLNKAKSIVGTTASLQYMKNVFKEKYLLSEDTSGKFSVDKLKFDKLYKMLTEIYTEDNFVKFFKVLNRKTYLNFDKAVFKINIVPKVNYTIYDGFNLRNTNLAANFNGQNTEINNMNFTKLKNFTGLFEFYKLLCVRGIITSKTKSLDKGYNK

BoNT/A LC [2] = molecular target: T1, BoNT/A LC; experiment: biochemical; assay type: biochemical, C. botulinum
BoNT/A LC [3] = molecular target: T1, BoNT/A LC; experiment: biochemical; assay type: binding, C. botulinum
BoNT/A LC [4] = molecular target: T1, BoNT/A LC; experiment: biochemical; assay type: binding, C. botulinum; remark: listed apart in the source

SMILES: O=c1ccc2cc3c(-c4ccc([N+](=O)[O-])cc4)coc3cc2o1 [Compound 1, 3-(4-nitrophenyl)-7H-furo[3,2-g]chromen-7-one]
- antidote activity against paralytic actions of BoNT (BoNT): efficient antidote with the ability to mitigate the paralytic actions of BoNT
- inhibition at 81 µM (BoNT/A LC [1]): ~100%
- Vmax (BoNT/A LC [2]): 2.13 ± 0.5 RFU/s and 2.09 ± 0.2 RFU/s and 1.56 ± 1.1 RFU/s
- type of inhibition (BoNT/A LC [2]): mixed (non-competitive) type of inhibition
- Ki (BoNT/A LC [2]; Ki): 5.8 ± 0.7 µM
- Ki (BoNT/A LC [2]; Ki′): 11.5 ± 2.9 µM
- Ka (association constant) (BoNT/A LC [3]): 760900 M⁻¹
- Kd (BoNT/A LC [3]): 1.31 µM
- N (number of binding sites, binding stoichiometry) (BoNT/A LC [3]): 2.8 and 2.760
- ΔH (change in enthalpy) (BoNT/A LC [3]): -2.39 kcal/mol
- ΔS (change in entropy) (BoNT/A LC [3]): 79.05 J/mol · K
- corrected intensity of Trp fluorescence signal at λmax of BoNT/A LC (signal reduced to) (BoNT/A LC [4]): 88% and 84% and 73% and 59%
- n (number of binding sites) (BoNT/A LC [4]): 0.90
- ΔH (BoNT/A LC [4]): -16.9 kcal/mol
- ΔS (BoNT/A LC [4]): −0.15 kJ · mol^−1 K^−1
- Kd (BoNT/A LC [4]; Ka (binding constant)): 38 µM and 115 µM
